Measurements: BindingDB's records for doi:10.1074/jbc.M113.480517 (University of Iowa, 2013)

Key:
Assay in all cases: DNA Methylation Assay
Conditions in all cases: pH 7.5
[1] = target: T1, DNA (cytosine-5)-methyltransferase 1 [351-1600] (Homo sapiens, UniProt P26358)
T1 construct: 351-1600
Procedure: (§1) Assays (0.1 ml) were conducted in 96-well black half-area plates in either a Wallac VICTOR2 or Biotek Synergy Neo plate reader at 37 °C in 10 mM Tris, pH 7.5, 100 mM potassium glutamate, 1 mM MgCl2, 1 mM DTT, 0.1 mg/ml BSA, and 5% glycerol. […] Data were fitted using Prism (GraphPad Software, Inc).

[2] = target: T2, DNA (cytosine-5)-methyltransferase 3A [590-912] (Homo sapiens, UniProt Q9Y6K1)
T2 construct: 590-912
T2 sequence (Q9Y6K1 590-912): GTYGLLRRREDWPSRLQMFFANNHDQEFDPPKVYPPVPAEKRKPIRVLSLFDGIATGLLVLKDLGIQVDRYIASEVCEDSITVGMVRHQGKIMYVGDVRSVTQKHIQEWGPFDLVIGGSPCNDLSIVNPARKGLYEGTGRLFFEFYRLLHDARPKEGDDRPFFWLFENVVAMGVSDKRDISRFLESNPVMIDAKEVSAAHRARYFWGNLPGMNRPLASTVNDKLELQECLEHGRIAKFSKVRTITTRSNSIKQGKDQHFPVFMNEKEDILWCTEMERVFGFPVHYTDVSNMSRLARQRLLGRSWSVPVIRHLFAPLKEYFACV
Procedure: as §1

[3] = target: Orphan methyltransferase M.SssI (Spiroplasma monobiae (strain ATCC 33825 / MQ-1), UniProt P15840)
Sequence of Orphan methyltransferase M.SssI (P15840 whole entry): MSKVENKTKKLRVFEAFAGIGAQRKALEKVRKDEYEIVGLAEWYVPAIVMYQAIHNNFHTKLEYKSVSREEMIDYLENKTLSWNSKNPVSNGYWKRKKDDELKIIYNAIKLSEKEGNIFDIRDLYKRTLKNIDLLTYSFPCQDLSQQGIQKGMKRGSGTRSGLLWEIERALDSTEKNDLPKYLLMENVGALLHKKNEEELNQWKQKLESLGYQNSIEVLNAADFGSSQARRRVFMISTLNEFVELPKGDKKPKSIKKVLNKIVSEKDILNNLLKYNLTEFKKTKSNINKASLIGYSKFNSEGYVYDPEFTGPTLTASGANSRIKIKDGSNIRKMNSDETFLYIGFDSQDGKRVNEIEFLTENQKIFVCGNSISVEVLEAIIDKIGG
Procedure: as §1

T1 sequence (P26358 351-1600): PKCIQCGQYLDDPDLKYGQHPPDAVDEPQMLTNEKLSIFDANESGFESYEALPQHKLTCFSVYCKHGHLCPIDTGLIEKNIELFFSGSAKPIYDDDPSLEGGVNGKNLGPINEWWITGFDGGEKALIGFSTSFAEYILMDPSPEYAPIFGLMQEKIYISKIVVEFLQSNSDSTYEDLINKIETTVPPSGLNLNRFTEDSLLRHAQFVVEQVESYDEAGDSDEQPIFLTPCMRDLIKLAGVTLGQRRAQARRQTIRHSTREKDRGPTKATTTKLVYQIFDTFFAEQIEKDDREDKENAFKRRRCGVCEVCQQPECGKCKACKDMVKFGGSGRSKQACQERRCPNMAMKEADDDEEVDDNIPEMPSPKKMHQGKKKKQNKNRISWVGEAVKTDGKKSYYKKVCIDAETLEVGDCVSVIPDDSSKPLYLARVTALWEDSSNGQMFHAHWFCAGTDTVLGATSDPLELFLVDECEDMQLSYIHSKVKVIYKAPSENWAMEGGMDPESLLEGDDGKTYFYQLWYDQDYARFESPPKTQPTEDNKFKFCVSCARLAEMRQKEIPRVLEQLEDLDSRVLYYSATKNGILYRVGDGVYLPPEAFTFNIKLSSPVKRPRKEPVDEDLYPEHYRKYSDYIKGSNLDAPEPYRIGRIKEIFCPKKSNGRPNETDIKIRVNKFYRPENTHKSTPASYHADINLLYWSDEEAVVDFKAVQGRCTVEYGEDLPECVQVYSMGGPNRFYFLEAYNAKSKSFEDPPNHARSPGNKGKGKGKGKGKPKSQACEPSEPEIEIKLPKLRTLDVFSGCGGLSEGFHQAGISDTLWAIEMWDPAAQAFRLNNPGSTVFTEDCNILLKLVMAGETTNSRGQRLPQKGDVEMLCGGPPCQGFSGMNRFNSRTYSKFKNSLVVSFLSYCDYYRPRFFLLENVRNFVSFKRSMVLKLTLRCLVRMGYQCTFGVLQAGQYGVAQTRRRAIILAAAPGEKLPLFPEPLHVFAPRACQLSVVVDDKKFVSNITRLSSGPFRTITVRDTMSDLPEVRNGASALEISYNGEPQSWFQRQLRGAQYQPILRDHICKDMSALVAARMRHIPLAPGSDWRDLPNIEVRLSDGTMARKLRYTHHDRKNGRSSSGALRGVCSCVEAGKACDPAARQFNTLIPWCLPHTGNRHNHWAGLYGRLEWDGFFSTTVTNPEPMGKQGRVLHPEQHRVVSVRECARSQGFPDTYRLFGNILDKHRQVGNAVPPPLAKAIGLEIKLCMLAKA

Compound: CC(=O)NCCc1ccc(O)c(-c2c(O)c(O)c3c(c2O)C(=O)c2c(cc(O)c(C(=O)O)c2C(=O)O)C3=O)c1
- IC50 [1]: 19.1 µM
- IC50 [2]: 50.5 µM
- IC50 [3]: 53.6 µM
